*1 amine or outer side, *2 acyl side, *3 side chain or, on linkers, in order; H or OH if unused. Where a SMILES comes first, the peptide text is derived from it. Side-chain parts run from the residue outwards. [ ]: non-standard residue; d: D form. The star is where a group is joined. γGlu = O=C(O)[C@H](CCC(=O)[*:2])N[*:1]; Palmitoyl = CCCCCCCCCCCCCCCC(=O)*; AEEA = NCCOCCOCC(=O)O; Aib = CC(C)(N)C(=O)O
Experiments:
[1] = molecular target: T1, GLP-1R (Homo sapiens, UniProt P43220); test: GLP-1 receptor-mediated cAMP production in vitro; type: cell-based; settings: HEK293 cell line stably expressing GLP-1R
T1 construct: expressed in transfected cells
T1 sequence (P43220 24-463, species assumed): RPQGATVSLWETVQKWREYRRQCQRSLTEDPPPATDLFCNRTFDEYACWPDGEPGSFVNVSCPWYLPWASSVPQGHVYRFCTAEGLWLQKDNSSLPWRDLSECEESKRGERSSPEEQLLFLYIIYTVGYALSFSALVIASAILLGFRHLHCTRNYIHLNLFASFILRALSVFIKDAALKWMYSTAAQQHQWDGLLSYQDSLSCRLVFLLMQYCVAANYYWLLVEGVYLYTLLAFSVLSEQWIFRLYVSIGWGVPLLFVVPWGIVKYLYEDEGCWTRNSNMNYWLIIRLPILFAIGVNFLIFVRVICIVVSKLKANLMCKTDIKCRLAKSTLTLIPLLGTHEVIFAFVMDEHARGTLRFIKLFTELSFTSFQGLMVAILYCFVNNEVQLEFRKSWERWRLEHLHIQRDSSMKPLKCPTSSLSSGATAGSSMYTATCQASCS
Experimental: (§1) HEK293 cell line stably expressing GLP-1R or GCGR was used for screening GLP-1R and GCGR agonist.
(§2) Preparation of test sample: each compound was prepared into 100 μM stock solution, and then gradually diluted to working concentrations of 1 μM, 100 nM, 10 nM, 1 nM, 10^−1 nM, 10^−2 nM, 10^−3 nM, and H2O.
(§3) 1) Each compound to be tested was mixed with a serum-free medium (containing 0.1% BSA and 0.5 mM IBMX) to obtain a solution at a concentration 2 times the working concentration.
(§4) 2) The cells were digested, suspended in a serum-free medium (containing 0.5 mM IBMX), counted, and placed in a 384-well plate at a density of 1,000 cells/5 μL/well, then 5 μL of the testing compound was added, and the plate was placed in dark for reaction for 30 min.
(§5) 3) After the reaction was completed, a substrate for detecting cAMP was added, and the plate was placed in dark for reaction at the room temperature for 60 min.
(§6) 4) After the reaction was completed, the plate was placed on the Envision2104 multifunctional microplate reader for detection, and the ratio of optical density (OD) values at 665 nm and 615 nm were read out.

[2] = molecular target: T2, GCGR (Homo sapiens, UniProt P47871); test: GC receptor-mediated cAMP production in vitro; type: cell-based; settings: HEK293 cell line stably expressing GCGR
T2 construct: expressed in transfected cells
T2 sequence (P47871 26-477, species assumed): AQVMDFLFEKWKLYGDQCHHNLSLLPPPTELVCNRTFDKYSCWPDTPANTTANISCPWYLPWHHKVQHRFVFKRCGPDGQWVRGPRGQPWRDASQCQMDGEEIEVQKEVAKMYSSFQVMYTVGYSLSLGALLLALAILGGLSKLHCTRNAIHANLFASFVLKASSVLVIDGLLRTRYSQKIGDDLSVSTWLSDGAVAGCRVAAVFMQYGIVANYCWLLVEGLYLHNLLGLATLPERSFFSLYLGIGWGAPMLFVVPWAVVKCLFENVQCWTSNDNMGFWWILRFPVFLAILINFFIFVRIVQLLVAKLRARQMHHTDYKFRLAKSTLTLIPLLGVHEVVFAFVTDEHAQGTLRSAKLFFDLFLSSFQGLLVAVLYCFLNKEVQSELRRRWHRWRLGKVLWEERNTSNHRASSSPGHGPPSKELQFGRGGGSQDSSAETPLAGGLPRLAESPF
Experimental: as §1, §2, §3, §4, §5, §6

EC50 [1] [nM]	EC50 [2] [nM]	Structure (SMILES)
1.13	0.806	CCCCCCCCCCCCCCCC(=O)N[C@@H](CCC(=O)NCCCC[C@H](NC(=O)[C@H](C)NC(=O)[C@H](C)NC(=O)[C@H](CCCNC(=N)N)NC(=O)[C@H](CCC(=O)O)NC(=O)[C@H](CC(=O)O)NC(=O)[C@H](CC(C)C)NC(=O)[C@H](Cc1ccc(O)cc1)NC(=O)[C@H](CCCCN)NC(=O)[C@H](CO)NC(=O)[C@H](Cc1ccc(O)cc1)NC(=O)[C@H](CC(=O)O)NC(=O)[C@H](CO)NC(=O)[C@@H](NC(=O)[C@H](Cc1ccccc1)NC(=O)[C@@H](NC(=O)CNC(=O)[C@H](CCC(N)=O)NC(=O)[C@H](CO)NC(=O)[C@@H](N)Cc1c[nH]cn1)[C@@H](C)O)[C@@H](C)O)C(=O)N[C@@H](CCC(=O)O)C(=O)N[C@@H](Cc1ccccc1)C(=O)N[C@H](C(=O)N[C@@H](C)C(=O)N[C@@H](Cc1c[nH]c2ccccc12)C(=O)N[C@@H](CC(C)C)C(=O)N[C@@H](CCC(=O)O)C(=O)N[C@@H](C)C(=O)NCC(=O)NCC(N)=O)[C@@H](C)CC)C(=O)O [dgc001] (HELM PEPTIDE1{H.S.Q.G.T.F.T.S.D.Y.S.K.Y.L.D.E.R.A.A.K.E.F.I.A.W.L.E.A.G.G.[am]}|PEPTIDE2{[CCCCCCCCCCCCCCCC(=O)[*:2]].[gGlu]}$PEPTIDE1,PEPTIDE2,20:R3-2:R2$$$V2.0; N-terminus assumed)
0.401	1.3	CCCCCCCCCCCCCCCC(=O)N[C@@H](CCC(=O)NCCCC[C@H](NC(=O)[C@H](C)NC(=O)[C@H](C)NC(=O)[C@H](CCCNC(=N)N)NC(=O)[C@H](CCC(=O)O)NC(=O)[C@H](CC(=O)O)NC(=O)[C@H](CC(C)C)NC(=O)[C@H](Cc1ccc(O)cc1)NC(=O)[C@H](CCCCN)NC(=O)[C@H](CO)NC(=O)[C@H](Cc1ccc(O)cc1)NC(=O)[C@H](CC(=O)O)NC(=O)[C@H](CO)NC(=O)[C@@H](NC(=O)[C@H](Cc1ccccc1)NC(=O)[C@@H](NC(=O)CNC(=O)[C@H](CCC(N)=O)NC(=O)C(C)(C)NC(=O)[C@@H](N)Cc1c[nH]cn1)[C@@H](C)O)[C@@H](C)O)C(=O)N[C@@H](CCC(=O)O)C(=O)N[C@@H](Cc1ccccc1)C(=O)N[C@H](C(=O)N[C@@H](C)C(=O)N[C@@H](Cc1c[nH]c2ccccc12)C(=O)N[C@@H](CC(C)C)C(=O)N[C@@H](CCC(=O)O)C(=O)NCC(=O)N[C@@H](CCC(=O)O)C(=O)NCC(N)=O)[C@@H](C)CC)C(=O)O [dgc018] (HELM PEPTIDE1{H.[Aib].Q.G.T.F.T.S.D.Y.S.K.Y.L.D.E.R.A.A.K.E.F.I.A.W.L.E.G.E.G.[am]}|PEPTIDE2{[CCCCCCCCCCCCCCCC(=O)[*:2]].[gGlu]}$PEPTIDE1,PEPTIDE2,20:R3-2:R2$$$V2.0; N-terminus assumed)
0.092	8.22	CCCCCCCCCCCCCCCC(=O)N[C@@H](CCC(=O)NCCOCCOCC(=O)NCCOCCOCC(=O)NCCCC[C@H](NC(=O)[C@H](C)NC(=O)[C@H](C)NC(=O)[C@H](CCCNC(=N)N)NC(=O)[C@H](CCC(=O)O)NC(=O)[C@H](CCC(=O)O)NC(=O)[C@H](CC(C)C)NC(=O)[C@H](Cc1ccc(O)cc1)NC(=O)[C@H](CCCCN)NC(=O)[C@H](CO)NC(=O)[C@H](Cc1ccc(O)cc1)NC(=O)[C@H](CC(=O)O)NC(=O)[C@H](CO)NC(=O)[C@@H](NC(=O)[C@H](Cc1ccccc1)NC(=O)[C@@H](NC(=O)CNC(=O)[C@H](CCC(N)=O)NC(=O)C(C)(C)NC(=O)[C@@H](N)Cc1c[nH]cn1)[C@@H](C)O)[C@@H](C)O)C(=O)N[C@@H](CCC(=O)O)C(=O)N[C@@H](Cc1ccccc1)C(=O)N[C@H](C(=O)N[C@@H](C)C(=O)N[C@@H](Cc1c[nH]c2ccccc12)C(=O)N[C@@H](CC(C)C)C(=O)N[C@@H](CCC(=O)O)C(=O)N[C@@H](CO)C(=O)NCC(=O)NCC(N)=O)[C@@H](C)CC)C(=O)O [dgc009] (H-H[Aib]QGTFTSDYSKYLEERAAK([AEEA-AEEA-γGlu-Palmitoyl])EFIAWLESGG-NH2; N-terminus assumed)
